Laboratory results published in patent US20230322933A1, “MODEL FOR PREDICTION OF TOLERABILITY ISSUES IN CONNECTION WITH INTRAVENOUS ADMINISTRATION OF THERAPEUTIC ANTIBODIES” (BIOINVENT INTERNATIONAL AB, priority 2020, published 2023).
Where “and” joins values, the source holds several entries; their conditions need not be identical. Equal entries are not always repeated. Entries after “also recorded” stand apart in the source; their conditions may differ.

Legend:
mouse CD32B (mouse) = mouse CD32B (mouse) (UniProt P08101); experiment: receptor saturation at 10 µg/ml AT-130-2; separate experiments not shown in the filing
wildtype C57/BL6 mice [1] = experiment: Macroscopic IRRs (scoring 0-2) in mice after injection of surrogate antibody, with or without premedication or split-dosing; format: in vivo, mouse; design: key to grade of macroscopic symptoms with single premedication: 0: No visible symptoms; 1: Isolation, decreased activity; 2: Isolation, decreased activity, impaired balance, piloerection, hunching followed by un-natural body posture; conditions: for effect of anti-histamine premedication alone on IRRs / macroscopic symptoms: pre i.v. injection of 10 mg/kg AT-130-2 IgG2a; for effect of adding anti-histamine to two doses of corticosteroid: with 40 mg/kg Betamethasone (24 hours and 1 hour) pre i.v. 10 mg/kg AT-130-2 IgG2a, macroscopic symptoms and platelet counts; for inhibition of IRRs by other pre-medications: given i.p. 1 h prior to i.v. AT-130-2 IgG2a bulk dose 200 ug/mouse
Protocol: Six to eight weeks-old (17-20 g) female C57/BL6 and Balb C mice were obtained from Taconic or Janvier. Mice were injected i.v with mouse anti-CD32B AT-130-2 IgG2a either as a bulk dose of 200 ug/mouse or as a split-dose with 8 ug/mouse followed by 200 ug/mouse.
For the corticosteroid treatment, Betapred (betamethasone, VNR: 008938, Alfasigma S.P.A.) was used at 10 mg/kg which is a suboptimal dose in these mouse models.
Split-dosing was initiated 24 h post corticosteroid treatment with 8 ug/mouse of mouse anti-CD32B AT-130-2 IgG2a i.v. followed by a bulk-dose of 200 ug/mouse 20-40 minutes later. In parallel mice were injected with only the bulk-dose.
Mice were monitored post injection with regards to changes in behavior and macroscopic symptoms such as isolation, mobility, and fur condition. Macroscopic IRRs scoring system of 0-2 was set up based on the observations.
Other premedications evaluated were anti-PAF (CV3988, sc-201015, Santa Cruz 20 mg/kg), anti-IL6 (clone 15A7, BE0047, Bioxcell, 10 mg/kg), anti-histamine (Zantac, VNR: 077875, GlaxoSmithKline AB, 5 mg/kg) or a leukotriene-antagonist (131064, Apoex, 4 mg/kg). These premedications were given i.p 1 h prior to injection i.v of mouse anti-CD32B AT-130-2 IgG2a as a bulk dose of 200 ug/mouse.
Six to eight weeks-old (17-20 g) female C57/BL6 mice were obtained from Taconic. Mice were injected either intra-venous (i.v.), […] (i.p.) or sub-cutaneous (s.c.) with mouse anti-CD32B AT-130-2 IgG2a in doses ranging from 1 μg-400 μg/mouse.
For the corticosteroid treatment, Betapred (betamethasone, VNR: 008938, Alfasigma S.P.A.) or Dexamethasone (Cat. No: S1322, batch no: 02, Selleckchem) was used. For the anti-histamine treatment Zyrlex (10 mg/ml, VNR: 523084, MACURE PHARMA ApS), Zantac (25 mg/ml, VNR: 077875, GlaxoSmithKline AB) or Aeurius (0.5 mg/ml, VNR: 097288, Merck Sharp & Dohme BV) was used.
Mice were monitored post injection with regard to changes in behavior and macroscopic symptoms such as isolation, mobility, and fur condition. Macroscopic IRRs scoring system of 0-2 was set up based on the observations: […]
For the corticosteroid treatment, Betapred (betamethasone, VNR: 008938, Alfasigma S.P.A.) or Dexamethasone (Cat. No: S1322, Batch No: 02, Selleckchem) was used.

wildtype C57/BL6 mice [2] = experiment: Platelet counts in fresh mouse blood (Vetscan) after antibody injection; format: in vivo; conditions: pre i.v. injection of 10 mg/kg AT-130-2 IgG2a
Protocol: Blood samples were collected from vena saphena 20 min post injection of bulk dose of anti-CD32B for instant blood count analysis. For liver enzyme and cytokine analysis, the mice were bled from the aorta under isoflurane anesthesia just prior to sacrifice. Samples for liver enzymes and cytokines were collected 1 h and respectively 3 h after bulk dose.
Platelet counts were analyzed in fresh blood using a Vetscan (Vetscan HM5 Abaxis, Triolab).
Blood samples were collected from vena saphena for instant blood count analysis. For serum concentrations of AT130-2, liver enzyme and cytokine analysis, the mice were bled from the aorta under isoflurane anesthesia just prior to sacrifice.
Blood samples were collected from vena saphena for instant blood count analysis.

[3] = tested on: human subjects with non-hodgkins B-cell lymphoma; experiment: Platelet counts in clinical studies with BI-1206
Excerpt: (§1) Platelet counts, ALT concentrations and IRR grading Platelet counts, ALT concentrations and IRR grading were obtained from clinical sites where analyzed and reported according local standard procedures.

peripheral B lymphocytes = experiment: Peripheral B lymphocyte depletion after BI-1206 infusion; format: in vivo, human; conditions: 100 mg BI-1206; preliminary data
[4] = tested on: human subjects with non-hodgkins B-cell lymphoma; experiment: Clinical response in patients treated with BI-1206; format: in vivo; conditions: after incorporation of the premedication regimen into the clinical protocol
[5] = tested on: human subjects with non-hodgkins B-cell lymphoma; experiment: ALT/AST in clinical studies with BI-1206; conditions: ≥70 mg (70-100 mg) BI-1206
Excerpt: as §1

[6] = tested on: human subjects with non-hodgkins B-cell lymphoma; experiment: Cytokine release in plasma/serum after BI-1206 infusion (MSD); format: in vivo; conditions: ≥70 mg (70-100 mg) BI-1206
Protocol: For cytokine concentrations, frozen plasma samples were thawed and diluted ×2 and x8. Two parallel set of cytokines were analyzed, the proinflammatory assay with IL-6, IL-8, TNF-α, IFN-γ, IL-10, IL-2 and IL-4 (MesoScale Discovery (MSD) #K15049), and the chemokine assay with MIP-113, IL-113, IL-23, IL-12p70, TARC and VEGF (MSD #K15067). The assays followed the manufacturer's protocol as outlined briefly: 50 μL of sample and calibration standard were added to the appropriate MSD plates and incubated. Following washing, 25 μL of SULFO-TAG detection antibody mixture were added to each well of the corresponding plate. The plates were analyzed on a QuickPlex SQ120 Reader instrument (MSD) and cytokine concentration was calculated using the MSD software (Discovery Workbench, 2013; version LSR-4-0-12).

[7] = tested on: human subjects with non-hodgkins B-cell lymphoma; experiment: Infusion related reactions (IRR grading) in clinical studies with BI-1206
Excerpt: as §1
Part of the data is based on personal communication with individual investigators.

FcγRIIB = target: T1, FcγRIIB (Homo sapiens, UniProt P31994); experiment: FcgRIIb receptor occupancy on peripheral B cells (flow cytometry); format: in vivo; conditions: 100 mg BI-1206; preliminary data
T1 construct: endogenous in cells; host or cells: peripheral CD19+ B cells in whole blood of human subjects (B-cell NHL / CLL patients)
T1 sequence (P31994 43-310): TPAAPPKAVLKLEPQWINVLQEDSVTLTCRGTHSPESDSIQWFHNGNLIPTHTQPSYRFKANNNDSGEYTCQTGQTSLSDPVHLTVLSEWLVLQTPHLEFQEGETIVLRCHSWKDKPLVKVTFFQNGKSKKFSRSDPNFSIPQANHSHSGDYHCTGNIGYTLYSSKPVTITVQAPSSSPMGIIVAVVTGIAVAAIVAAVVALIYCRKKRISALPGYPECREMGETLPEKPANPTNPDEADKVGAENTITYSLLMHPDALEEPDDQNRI
Protocol: The FcgRIIb receptor occupancy in humans and hFcgRIIb transgenic mice was analyzed using flow cytometry. Whole blood from was incubated with either 005-005 antibody (targeting hFcgRIIb) or anti-hCD32-AF647 antibody. 005-005 binds the same epitope as BI-1206 but with much lower affinity. In the analysis, the Geo Mean of respectively mAb (005-005 and anti-human CD32) was acquired on the CD19+ cell population. Receptor occupancy (RO) was calculated using the following equations: RO (%)=((Total Receptors-Normalized Free Receptors)*100)/Total Receptors. All replicates of 005-005 geo mean of CD19+ cells were then multiplied by the Normalization factor.

mouse CD32B (mouse), sequence (P08101 30-207 limits assumed): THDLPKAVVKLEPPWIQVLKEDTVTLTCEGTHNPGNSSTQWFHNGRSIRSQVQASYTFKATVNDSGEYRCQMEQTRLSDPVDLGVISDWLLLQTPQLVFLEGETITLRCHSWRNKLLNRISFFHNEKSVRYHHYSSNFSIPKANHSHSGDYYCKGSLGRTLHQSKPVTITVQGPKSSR

AT-130-2 IgG2a (antibody)
receptor saturation (mouse CD32B (mouse)): 100%

Clc1ccc2c(c1)CCc1cccnc1C2=C1CCNCC1 [Aeurius]
effect of anti-histamine premedication alone on IRRs / macroscopic symptoms (wildtype C57/BL6 mice [1]; 10 mg/kg): did not inhibit IRRs or platelet decrease | effect of anti-histamine premedication alone on IRRs / macroscopic symptoms (wildtype C57/BL6 mice [1]; listed as Au, 10 mg/kg): The same results were seen | effect of adding anti-histamine to two doses of corticosteroid (wildtype C57/BL6 mice [1]): the protective effect was retained | effect of anti-histamine premedication alone on platelet decrease (wildtype C57/BL6 mice [2]): did not inhibit IRRs or platelet decrease

C[C@H]1C[C@H]2[C@@H]3CCC4=CC(=O)C=C[C@]4(C)[C@@]3(F)[C@@H](O)C[C@]2(C)[C@@]1(O)C(=O)CO [betamethasone]
grade of macroscopic symptoms with single premedication (wildtype C57/BL6 mice [1]; 40 mg/kg only 24 hours before i.v. 10 mg/kg AT-130-2 IgG2a): 1

CC(C)(C)c1ccc(C(O)CCCN2CCC(C(O)(c3ccccc3)c3ccccc3)CC2)cc1 (stereo not drawn) [anti-histamine]
inhibition of IRRs by other pre-medications (wildtype C57/BL6 mice [1]): None of these pre-medications could inhibit IRRs; also recorded: none of the tested substances (anti-PAF, anti-IL-6, anti-histamine and a leukotrien-antagonist) could prevent the IRRs | effect of anti-histamine premedication alone on IRRs / macroscopic symptoms (wildtype C57/BL6 mice [1]): did not inhibit macroscopic symptoms | effect of adding anti-histamine to two doses of corticosteroid (wildtype C57/BL6 mice [1]): did not affect macroscopic symptoms or platelet counts | effect of anti-histamine premedication alone on platelet decrease (wildtype C57/BL6 mice [2]): did seem to improve decrease in platelet counts

CCCCCCCCCCCCCCCCCCNC(=O)OCC(COP(=O)([O-])OCC[n+]1ccsc1)OC (stereo not drawn) [anti-PAF]
inhibition of IRRs by other pre-medications (wildtype C57/BL6 mice [1]): None of these pre-medications could inhibit IRRs; also recorded: none of the tested substances (anti-PAF, anti-IL-6, anti-histamine and a leukotrien-antagonist) could prevent the IRRs

BI-1206: anti-FcγRIIb antibody with light chain SEQ ID No:1 and heavy chain SEQ ID No:2
platelet decrease ([3]; 70 mg BI-1206, subjects 501-001 and 503-002, two doses of dexamethasone): no/low platelet decrease | seriousness and resolution of thrombocytopenia ([3]; 70-100 mg / ≥50 mg BI-1206): The decrease is transient and most episodes have been resolved within a week; also recorded: has not been serious nor associated with bleeding and most episodes resolved within a week | platelets ([3]; ≥50 mg BI-1206): transient decrease in platelets | peripheral B lymphocytes (peripheral B lymphocytes): transient depletion of peripheral B lymphocytes | time to recovery of peripheral B lymphocytes (peripheral B lymphocytes): approximately 7 days | clinical responses [4]: Both complete and partial responses have been observed | subjects with significant ALT and AST increase [5]: 3/14 and 3 out of 16 | time to normalization of cytokines [6]: ≤ 24 h | grade of IRR's ([7]; 30 mg BI-1206, subject 201-003, 10th administration, two doses of dexamethasone): 1 | IRRs ([7]; 70 mg BI-1206, subjects 501-001 and 503-002, dexamethasone 12 mg or 4 mg the evening before and 20 mg 30 minutes prior): None of the subjects suffered any IRRs; also recorded: Both subjects did not suffer IRRs | grade of IRRs ([7]; 70 mg BI-1206, subjects 501-001 and 503-002, dexamethasone (20 mg) only 30 minutes prior to infusion): 2-3 grade | severity and frequency of IRRs after implementation of premedication with two doses of corticosteroids ([7]; 70-100 mg BI-1206, study 17-BI-1206-02): Significantly lower frequency and severity of IRRs; also recorded: statistically significant reduced severity and frequency of IRRs | infusion related reactions during BI-1206 infusions ([7]; i.v. administration, human subjects): frequently associated with IRRs; also recorded: Frequent infusion related reactions (IRRs) have been seen | duration of receptor saturation (FcγRIIB): up to 48 hours | receptor occupancy on peripheral B cells (FcγRIIB): ~100%

O=C(O)COCCN1CCN(C(c2ccccc2)c2ccc(Cl)cc2)CC1 (centres unmarked) [Zyrlex]
effect of anti-histamine premedication alone on IRRs / macroscopic symptoms (wildtype C57/BL6 mice [1]; 10 mg/kg): The same results were seen; also recorded: did not inhibit IRRs or platelet decrease | effect of adding anti-histamine to two doses of corticosteroid (wildtype C57/BL6 mice [1]): the protective effect was retained | effect of anti-histamine premedication alone on platelet decrease (wildtype C57/BL6 mice [2]): did not inhibit IRRs or platelet decrease
